Source: patent US20090068143A1, “ORALLY EFFECTIVE C[…]” (priority 2005, published 2009)

Columns and labels:
iNOS = iNOS protein expression in activated macrophages (western blot); assay type: cell-based, mouse; settings: 1, 5 and 10 μM, 24 hrs after LPS stimulation
Procedure: RAW 264.7 macrophages, a mouse cell line (ATCC # TIB 71), were grown in Dulbecco's modified Eagle's medium (DMEM) with 4 mM L-glutamine adjusted to contain 1.5 g/L sodium bicarbonate, 4.5 g/L glucose, and 10% heat inactivated fetal bovine serum. Cells were grown in tissue culture flasks and seeded at appropriate density into 6 wells tissue culture plates. Four million Raw cells in half a milliliter were stimulated with 1 μg/ml Lipopolysaccharide E. coli 055:B5 (DIFCO Laboratories). The mouse macrophages were pre-treated for one hour with controls or 10 μM of test compounds, and later on activated with LPS. RNA samples were extracted from the cells 3 hrs after activation and iNOS gene expression levels were analyzed by real-time RT-PCR as previously described. For western blot analysis, compounds were tested at 1, 5 and 10 μM and cells were harvested 24 hrs after LPS stimulation. Supernatant were collected and NO secretion was analyzed using ELISA. […]
To assess correlation between gene expression and protein expression, protein extracts were prepared from the various treated activated macrophages. […] Primary antibodies against cyclophilin A were used as control (Upstate, Cat# 07-313), and the amount of iNOS was assessed using NOS2 (C11) Santa Cruz antibodies (Cat# SC-7271) were hybridized for 2 hours at room temperature. […]

TNF-α = test: Real-time RT-PCR gene expression in CNS of MOG induced EAE: TNF-α; assay type: in vivo, mouse; settings: 40 mg/kg p.o., day 31; over naive animals
Procedure: Total RNA is prepared using SV total RNA isolation system (Promega). The brains and spinal cords, which were removed on day 31 from five animals treated with vehicle (i.e. untreated) or 40 mg/kg p.o. of compound 18F (i.e. treated) in the MOG-induced EAE study, were homogenized in lysis buffer. The lysates were transferred to an RNA isolation column, treated with DNAse, washed and eluted according to kit instructions. RNA concentrations were determined using GeneQuant II (Pharmacia-Amersham). Complementary DNA (cDNA) was synthesized from total RNA using […] II reverse transcriptase (Life Technologies). […] Quantitative real-time RT-PCR included 1 μl of the cDNA, 300 nM of the appropriate forward and reverse primers (according to the gene monitored) and 7.5 μl of the reaction mix containing buffer, nucleotides, Taq polymerase and SYBER green (SYBER Green master mix, Applied Biosystems), in a total reaction volume of 15 μl. […] During each annealing step, the amount of the amplified product was measured by the fluorescence of the double strand DNA binding dye, SYBER Green. The cycle of threshold (CT), representing the PCR cycle at which an increase in fluorescence above a baseline signal can be first detected, was determined for each product. […] Results were expressed as fold increase of gene expression in treated or untreated animals above the naive animals. […]

acute pain = settings: pretreatment, administered orally; cited from earlier work

## CCCCCCC(C)(C)c1cc(O)c([C@H]2CC(=O)C3CC2C3(C)C)c(OC(=O)/C=C/C(=O)O)c1 (single isomer, unassigned; (-)) [Compound 18F, (−)-4-{4-[1,1-Dimethylheptyl]-2-fumarate-6-hydroxy-phenyl}-6,6-dimethyl-bicyclo[3.1.1]heptan-2-one]
iNOS
  iNOS protein band (western blot): clear dose dependent disappearance of iNOS protein band
TNF-α
  Fold gene expression TNF-α, Brain, Treated: 2.5 fold
  Fold gene expression TNF-α, Spinal Cord, Treated: 15 fold
Acute pain
  efficacy against acute pain: effective against acute pain
